One molecule from ChEMBL document CHEMBL4828709, “Discovery of 2,4-pyrimidinediamine derivatives as potent dual inhibitors of ALK and HDAC” (Eur J Med Chem, 2021) can be followed below.

Activity calls are given as the source filed them. No cut-off for these calls is given here.

The target of data set [1] is T1, ALK tyrosine kinase receptor (Homo sapiens, UniProt Q9UM73). Kind of data set: Inhibition of ALK in human MDA-MB-231 cells assessed as inhibition of ERK phosphorylation at Thr202/Tyr204 residue at 4 uM measured after 24 hrs by Western blot assay. Type of data set: cell-based. In general terms: Immunoblotting shows a protein as a band on a membrane.
Data set [2] has as its system MDA-MB-231. The data set can be described thus: Induction of apoptosis in human MDA-MB-231 cells assessed as early apoptotic cells at 4 uM measured after 24 hrs by Annexin V-FITC/PI staining based flowcytometry (reference value: 0.64%). Type of data set: functional.
For data set [3], the target named is T2, Protein deacetylase HDAC6 (Homo sapiens, UniProt Q9UBN7).
T2 sequence (Q9UBN7 whole entry): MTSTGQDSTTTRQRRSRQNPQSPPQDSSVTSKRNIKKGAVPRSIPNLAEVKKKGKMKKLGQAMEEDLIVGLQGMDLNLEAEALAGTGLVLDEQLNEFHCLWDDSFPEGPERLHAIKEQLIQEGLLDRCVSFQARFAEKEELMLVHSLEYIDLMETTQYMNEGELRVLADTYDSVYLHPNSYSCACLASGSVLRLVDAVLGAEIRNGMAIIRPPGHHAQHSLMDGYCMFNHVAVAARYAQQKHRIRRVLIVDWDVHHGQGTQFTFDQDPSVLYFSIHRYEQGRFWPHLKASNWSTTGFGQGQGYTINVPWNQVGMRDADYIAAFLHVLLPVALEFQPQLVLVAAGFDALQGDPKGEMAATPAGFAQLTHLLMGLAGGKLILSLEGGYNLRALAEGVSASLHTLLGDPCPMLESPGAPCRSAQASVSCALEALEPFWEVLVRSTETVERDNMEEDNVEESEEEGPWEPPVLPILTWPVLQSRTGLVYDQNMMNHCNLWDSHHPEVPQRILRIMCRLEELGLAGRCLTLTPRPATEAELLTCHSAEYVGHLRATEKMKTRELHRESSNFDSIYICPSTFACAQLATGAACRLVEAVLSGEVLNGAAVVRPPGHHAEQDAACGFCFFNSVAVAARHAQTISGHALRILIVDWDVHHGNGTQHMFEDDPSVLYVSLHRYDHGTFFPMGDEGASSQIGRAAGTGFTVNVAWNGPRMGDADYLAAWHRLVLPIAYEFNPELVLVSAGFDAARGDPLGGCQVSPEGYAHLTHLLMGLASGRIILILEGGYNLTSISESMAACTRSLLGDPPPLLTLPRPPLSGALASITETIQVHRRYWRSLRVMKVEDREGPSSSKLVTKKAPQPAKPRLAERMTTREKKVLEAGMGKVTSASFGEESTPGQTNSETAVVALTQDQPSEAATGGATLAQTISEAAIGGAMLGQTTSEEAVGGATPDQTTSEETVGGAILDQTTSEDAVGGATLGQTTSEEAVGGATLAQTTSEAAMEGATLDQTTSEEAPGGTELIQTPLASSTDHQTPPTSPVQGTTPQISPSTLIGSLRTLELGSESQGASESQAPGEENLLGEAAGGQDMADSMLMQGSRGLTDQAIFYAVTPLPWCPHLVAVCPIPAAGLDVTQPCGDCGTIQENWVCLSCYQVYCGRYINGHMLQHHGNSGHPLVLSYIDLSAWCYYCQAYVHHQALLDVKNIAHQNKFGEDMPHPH
Description: Inhibition of HDAC6 (unknown origin)

A short description of data set [4]: Volume of distribution at steady state in Sprague-Dawley rat at 1 mg/kg, iv measured for 12 hrs by LC-MS/MS analysis. The settings on record: in vivo. Type of data set: ADME, organism-based.
Data set [5] relates to MDA-MB-231. Kind of data set: Induction of apoptosis in human MDA-MB-231 cells assessed as viable cells at 1 uM measured after 24 hrs by Annexin V-FITC/PI staining based flowcytometry (reference value: 93.14%). In kind it is functional. Conditions: read-out: Activity.
The subject of data set [6] is SH-SY5Y. Kind of data set: Cell cycle arrest in human SH-SY5Y cells assessed as accumulation of cells at G2 phase at 2 uM measured after 24 hrs by PI staining based Flowcytometry method (reference value: 13.23%). Type of data set: functional.
In the next data set the test system is A549. Kind of data set: Potency index, ratio of crizotinib IC50 to test compound IC50 for human A549 cells assessed as inhibition of cell proliferation measured after 72 hrs by CCK8 assay. Type of data set: functional.
The test system of data set [7] is SH-SY5Y. Kind of data set: Induction of apoptosis in human SH-SY5Y cells assessed as necrotic cells at 2 uM measured after 24 hrs by Annexin V-FITC/PI staining based flowcytometry (reference value: 7.81%). In kind it is functional.
Data set [8] deals with MDA-MB-231. The data set can be described thus: cells. Type of data set: functional, cell-based. The settings on record: Homo sapiens, MDA-MB-231, 72 h.
Description: Antiproliferative activity against human MDA-MB-231 cells assessed as inhibition of cell proliferation measured after 72 hrs by CCK8 assay
In data set [9] the test system is MDA-MB-231. The data set can be described thus: Cell cycle arrest in human MDA-MB-231 cells assessed as accumulation of cells at G2 phase at 4 uM measured after 24 hrs by PI staining based flowcytometry method (reference value: 23.89%). In kind it is functional.
Data set [10] deals with SH-SY5Y. Kind of data set: Cell cycle arrest in human SH-SY5Y cells assessed as accumulation of cells at G1 phase at 2 uM measured after 24 hrs by PI staining based flowcytometry method (reference value: 59.8%). Type of data set: functional.
Data set [11] concerns MDA-MB-231. The data set can be described thus: Cell cycle arrest in human MDA-MB-231 cells assessed as accumulation of cells at G2 phase at 1 uM measured after 24 hrs by PI staining based flowcytometry method (reference value: 23.89%). In kind it is functional.
The target in data set [12] is ALK tyrosine kinase receptor (Homo sapiens, UniProt Q9UM73, G1202R).
The subject of data set [13] is SH-SY5Y. Kind of data set: Induction of apoptosis in human SH-SY5Y cells assessed as late apoptotic cells at 1 uM measured after 24 hrs by Annexin V-FITC/PI staining based flowcytometry (reference value: 14.32%). In kind it is functional.
The nature of data set [14]: Potency index, ratio of crizotinib IC50 to test compound IC50 for human SKNBE2 cells harboring wild type ALK assessed as inhibition of cell proliferation measured after 72 hrs by CCK8 assay. Type of data set: functional. On the technique in general: Formazan colour is commonly taken as a measure of viable cells.
The species named for a further data set is Homo sapiens. The data set can be described thus: Inhibition of human FLT at 1 uM.
Data set [15] relates to MDA-MB-231. The data set can be described thus: Induction of apoptosis in human MDA-MB-231 cells assessed as early apoptotic cells at 2 uM measured after 24 hrs by Annexin V-FITC/PI staining based flowcytometry (reference value: 0.64%). Type of data set: functional.
Data set [16] deals with Insulin-like growth factor 1 receptor (Homo sapiens) (UniProt P08069). The data set can be described thus: Inhibition of human IGF1R at 1 uM.
The target of data set [17] is ALK tyrosine kinase receptor (Homo sapiens, UniProt Q9UM73, L1196M).
The target in a further data set is Histone deacetylase 1 (Homo sapiens, UniProt Q13547). The settings on record: Sf9, dose 100.0 nM, time 15.0 min.
Data set [18] has as its system SH-SY5Y. The data set can be described thus: Potency index, ratio of ceritinib IC50 to test compound IC50 for human SH-SY5Y cells harboring ALK F1174L mutant assessed as inhibition of cell proliferation measured after 72 hrs by CCK8 assay. Type of data set: functional.
The nature of data set [19]: Potency index, ratio of ceritinib IC50 to test compound IC50 for human SKNBE2 cells harboring wild type ALK assessed as inhibition of cell proliferation measured after 72 hrs by CCK8 assay. Type of data set: functional.
The target of data set [20] is T1, ALK tyrosine kinase receptor. The data set can be described thus: Inhibition of ALK in human MDA-MB-231 cells assessed as inhibition of Akt phosphorylation at Ser473 residue measured after 24 hrs by Western blot assay. Type of data set: cell-based. Conditions: dose 1-4 µM.

T1 sequence (Q9UM73 19-1620 limits assumed): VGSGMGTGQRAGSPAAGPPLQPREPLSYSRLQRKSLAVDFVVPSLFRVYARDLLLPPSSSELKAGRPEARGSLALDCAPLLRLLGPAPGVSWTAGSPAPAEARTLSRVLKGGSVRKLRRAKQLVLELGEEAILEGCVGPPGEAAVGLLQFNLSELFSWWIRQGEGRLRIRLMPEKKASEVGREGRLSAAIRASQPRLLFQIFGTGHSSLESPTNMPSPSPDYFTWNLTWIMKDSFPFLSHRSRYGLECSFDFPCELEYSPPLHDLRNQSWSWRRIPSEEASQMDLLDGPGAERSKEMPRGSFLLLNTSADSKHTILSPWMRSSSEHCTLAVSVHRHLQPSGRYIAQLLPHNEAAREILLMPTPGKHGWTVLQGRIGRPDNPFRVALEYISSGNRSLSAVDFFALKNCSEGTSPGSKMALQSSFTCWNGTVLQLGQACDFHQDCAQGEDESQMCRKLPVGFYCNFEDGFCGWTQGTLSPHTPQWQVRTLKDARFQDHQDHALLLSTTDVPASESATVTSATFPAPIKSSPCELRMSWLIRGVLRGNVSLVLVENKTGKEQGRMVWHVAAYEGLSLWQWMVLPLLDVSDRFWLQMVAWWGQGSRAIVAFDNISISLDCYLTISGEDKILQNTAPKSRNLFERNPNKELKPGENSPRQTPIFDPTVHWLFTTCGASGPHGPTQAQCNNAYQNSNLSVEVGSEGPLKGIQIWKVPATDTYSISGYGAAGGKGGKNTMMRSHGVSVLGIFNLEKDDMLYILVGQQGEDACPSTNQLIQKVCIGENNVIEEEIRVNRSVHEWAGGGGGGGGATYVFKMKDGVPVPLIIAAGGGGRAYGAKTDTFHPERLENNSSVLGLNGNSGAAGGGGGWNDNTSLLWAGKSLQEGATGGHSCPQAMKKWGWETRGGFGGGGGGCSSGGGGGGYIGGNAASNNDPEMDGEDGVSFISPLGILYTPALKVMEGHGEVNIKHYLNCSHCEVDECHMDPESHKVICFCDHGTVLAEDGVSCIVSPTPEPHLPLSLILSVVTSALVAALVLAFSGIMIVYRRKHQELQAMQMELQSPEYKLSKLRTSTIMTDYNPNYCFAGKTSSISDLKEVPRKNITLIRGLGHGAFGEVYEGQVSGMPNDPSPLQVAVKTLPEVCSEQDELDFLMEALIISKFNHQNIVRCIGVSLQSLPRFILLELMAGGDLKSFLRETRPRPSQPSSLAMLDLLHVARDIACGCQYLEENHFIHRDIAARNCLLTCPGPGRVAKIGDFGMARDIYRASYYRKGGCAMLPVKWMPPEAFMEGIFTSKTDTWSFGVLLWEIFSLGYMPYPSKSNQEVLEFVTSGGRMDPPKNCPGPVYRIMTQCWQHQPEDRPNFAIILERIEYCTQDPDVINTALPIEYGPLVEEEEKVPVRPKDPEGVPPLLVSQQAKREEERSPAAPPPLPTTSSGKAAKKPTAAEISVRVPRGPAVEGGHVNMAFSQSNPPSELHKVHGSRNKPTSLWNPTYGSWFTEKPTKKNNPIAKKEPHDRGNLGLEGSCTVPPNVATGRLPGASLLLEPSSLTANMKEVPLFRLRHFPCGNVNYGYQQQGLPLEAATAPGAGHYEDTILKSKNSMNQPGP
Chain of ALK tyrosine kinase receptor (Homo sapiens, UniProt Q9UM73, L1196M) (Q9UM73 19-1620 L1196M limits assumed): as the sequence (Q9UM73 19-1620 limits assumed) above, with L1178M counted along it
Chain of Insulin-like growth factor 1 receptor (Homo sapiens) (P08069 31-736 limits assumed): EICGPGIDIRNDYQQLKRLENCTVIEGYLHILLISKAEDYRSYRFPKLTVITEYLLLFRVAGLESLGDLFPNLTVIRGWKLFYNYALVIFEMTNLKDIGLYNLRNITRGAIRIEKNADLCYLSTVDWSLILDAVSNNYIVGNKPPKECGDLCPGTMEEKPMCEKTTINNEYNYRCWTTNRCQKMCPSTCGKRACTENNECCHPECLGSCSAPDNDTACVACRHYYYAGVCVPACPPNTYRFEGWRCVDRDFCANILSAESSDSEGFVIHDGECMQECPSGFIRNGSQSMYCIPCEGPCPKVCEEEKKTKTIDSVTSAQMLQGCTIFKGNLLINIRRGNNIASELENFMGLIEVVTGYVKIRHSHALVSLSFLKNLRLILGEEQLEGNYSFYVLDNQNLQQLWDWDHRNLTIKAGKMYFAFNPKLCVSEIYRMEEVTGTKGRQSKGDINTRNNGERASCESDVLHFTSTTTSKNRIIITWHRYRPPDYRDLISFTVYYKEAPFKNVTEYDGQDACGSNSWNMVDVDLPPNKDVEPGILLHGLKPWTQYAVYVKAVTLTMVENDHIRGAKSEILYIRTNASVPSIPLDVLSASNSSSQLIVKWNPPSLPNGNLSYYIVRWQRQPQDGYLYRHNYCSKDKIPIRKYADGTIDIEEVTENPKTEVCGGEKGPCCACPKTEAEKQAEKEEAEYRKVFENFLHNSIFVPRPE
Chain of Insulin-like growth factor 1 receptor (Homo sapiens) (P08069 741-1367 limits assumed): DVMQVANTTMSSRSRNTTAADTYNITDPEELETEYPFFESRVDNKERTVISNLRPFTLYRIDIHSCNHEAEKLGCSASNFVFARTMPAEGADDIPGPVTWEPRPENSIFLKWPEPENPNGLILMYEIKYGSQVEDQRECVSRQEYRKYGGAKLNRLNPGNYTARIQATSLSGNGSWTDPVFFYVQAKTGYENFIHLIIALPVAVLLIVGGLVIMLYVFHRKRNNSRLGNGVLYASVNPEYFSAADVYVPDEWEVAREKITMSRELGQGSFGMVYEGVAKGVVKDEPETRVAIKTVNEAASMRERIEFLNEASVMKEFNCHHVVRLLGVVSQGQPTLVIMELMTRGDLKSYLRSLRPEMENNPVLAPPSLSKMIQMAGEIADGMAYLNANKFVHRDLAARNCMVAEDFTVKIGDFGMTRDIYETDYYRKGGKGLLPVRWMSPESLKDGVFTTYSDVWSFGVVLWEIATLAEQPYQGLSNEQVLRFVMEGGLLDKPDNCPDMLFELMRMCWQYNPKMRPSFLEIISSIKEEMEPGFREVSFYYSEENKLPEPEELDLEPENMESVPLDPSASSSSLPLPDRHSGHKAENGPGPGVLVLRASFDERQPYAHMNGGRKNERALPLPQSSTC
Chain of Histone deacetylase 1 (Q13547 whole entry): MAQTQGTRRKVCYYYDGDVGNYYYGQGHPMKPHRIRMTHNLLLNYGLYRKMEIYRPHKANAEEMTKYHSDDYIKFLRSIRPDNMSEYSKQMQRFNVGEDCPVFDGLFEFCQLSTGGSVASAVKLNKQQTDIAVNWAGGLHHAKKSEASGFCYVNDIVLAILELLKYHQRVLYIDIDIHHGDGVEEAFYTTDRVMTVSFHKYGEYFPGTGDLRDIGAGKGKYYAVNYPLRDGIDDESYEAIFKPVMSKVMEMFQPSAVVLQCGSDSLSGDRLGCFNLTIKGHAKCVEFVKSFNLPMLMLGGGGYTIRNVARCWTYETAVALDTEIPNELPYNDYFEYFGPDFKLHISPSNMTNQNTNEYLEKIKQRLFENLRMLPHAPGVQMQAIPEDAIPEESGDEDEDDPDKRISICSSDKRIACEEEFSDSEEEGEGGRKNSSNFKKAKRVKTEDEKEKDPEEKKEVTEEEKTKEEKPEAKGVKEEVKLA
Chain of ALK tyrosine kinase receptor (Homo sapiens, UniProt Q9UM73, G1202R) (Q9UM73 19-1620 G1202R limits assumed): as the sequence (Q9UM73 19-1620 limits assumed) above, with G1184R counted along it

Usually inhibition stands for how much of the control response was suppressed. What is called IC50 is the concentration at which inhibition is half-maximal. For orientation: Vdss means the apparent volume that relates the amount in the body to the concentration in plasma or blood. A higher Vdss goes with extensive tissue distribution. As to `CC(C)S(=O)(=O)c1ccccc1Nc1nc(Nc2ccc(NC(=O)CCCCCCC(=O)NO)cc2)ncc1Cl`, the inhibition result (in [1]; in the data set listed under Homo sapiens; in data set [16]) was “Active” each time. The Activity with MDA-MB-231 [2] is reported as 4.42%; with SH-SY5Y [6], 75.94%; in the data set with SH-SY5Y [7], 10.51%; in the data set with MDA-MB-231 [9], 50.99%; in the data set on SH-SY5Y [10] it was 3.56%; with MDA-MB-231 [11] it was 32.53%. In addition, the results for the Activity with SH-SY5Y [13] and in the data set on MDA-MB-231 [15] were 21.05% and 5.5%, respectively. Further, the IC50 in data set [3] was 4.4 nM; in the data set with MDA-MB-231 [8] it was 460 nM; in [12], 0.4 nM; in [17], 1.7 nM. The molecule also displayed a Vdss in [4] of 3.3 L/kg. For the same molecule, the viability at 1 µM in the data set on MDA-MB-231 [5] turned out to be 87.9%. For the same molecule, the “Ratio IC50” value (with A549; in data set [14]; in the data set with SH-SY5Y [18]; in data set [19]) was 3 throughout. For the same molecule, the inhibition against Histone deacetylase 1 is 87%; in data set [20] it was “Dose-Dependent Effect”.
